{"source": "paper PMC11579209", "about": "“Population pharmacokinetics and exposure–response relationships of maribavir in transplant recipients with cytomegalovirus infection” (Journal of Pharmacokinetics and Pharmacodynamics, 2024)", "key": {"[1]": {"parameters": "method as in PMID 38009271", "settings": "concurrent rifampin; cited from earlier work"}, "[2]": {"parameters": "method as in PMID 31532960, PMID 30329038", "settings": "doses up to 1200 mg BID, cited from earlier work"}, "CMV [3]": {"tested_on": "CMV", "assay": "Exposure–response analysis of efficacy, key secondary endpoint: CMV viremia clearance and symptom control at week 8 maintained through week 16 (SOLSTICE)", "format": "in vivo, human", "description": "(§1) The exposure–response analyses for maribavir were based on data collected from transplant recipients with CMV infections that were refractory to treatment with ganciclovir, valganciclovir, foscarnet, or cidofovir in the phase 3 SOLSTICE study (ClinicalTrials.gov: NCT02931539). SOLSTICE was a multicenter, open-label, active-controlled study in which patients were randomized 2:1 to receive maribavir 400 mg BID or IAT for 8 weeks, with 12 weeks of follow-up. The primary endpoint was confirmed CMV clearance at the end of week 8, and the key secondary endpoint was achievement of CMV clearance and symptom control at the end of week 8, maintained through week 16. TE CMV mutation conferring resistance to maribavir was assessed as an exploratory endpoint. Full details of the SOLSTICE study have been published previously.\n(§2) Posterior Bayes parameters of the final PopPK model were used to derive rich concentration–time profiles for maribavir. Actual dosing history and factors affecting the PK of maribavir (i.e., body weight and time-varying presence of strong CYP3A4 inhibitors or strong CYP3A4 inducers) were considered in the predictions.\n(§3) Data set preparation, exploration, visualization of the data and exposure-response analyses were performed using R® (version 4.0.5 for efficacy and resistance analyses; version 4.0.2 for safety analysis) with comprehensive R® archive network (CRAN) and Certara Strategic Consulting (CSC) package. Firth correction on logistic regression was done based on library “logistf”. Logistic regressions with log-linear exposure effect or Emax exposure effect were performed using NONMEM Version VII (version 7.4).\n(§4) Maribavir exposure parameters (AUCss, Cmax.ss, and Ctrough.ss) were combined with the primary and key secondary efficacy endpoints, and with TE CMV mutations conferring resistance to maribavir from the SOLSTICE study. The following covariates were included in the dataset to identify potential influencing factors: transplant type (HCT, SOT); CMV DNA level (high, intermediate, low) at baseline; symptom status (symptomatic or asymptomatic) at baseline; CMV resistant at baseline (yes, no); donor (D) and recipient (R) CMV serostatus (D+/R−, D+/R+, or D−/R+, D−/R−); antilymphocyte use (yes, no); immune function status as measured by total white blood cells from hematology panel at baseline; CMV-specific CD4 + CD69 + and CD8 + CD69 + T cells from immune function assay as continuous variables at baseline; enrolling region (North America, Europe, Asia Pacific); prior use of CMV prophylaxis (yes, no); age (as a continuous parameter) and age group (12 to < 18 years; 18 to < 45 years; 45 to < 65 years; ≥65 years); sex (male, female); race and ethnicity; TE CMV maribavir-resistant mutations (yes, no); and temporal identification of maribavir resistance (no, on maribavir treatment, post-maribavir treatment).\n(§5) The exposure–response analyses were performed using a logistic regression model whereby a response can be defined as 0 (non-responder) or 1 (responder). Logistic regression analyses were performed to explore potential associations with maribavir exposure and the probability of response. The logistic regression model had the following form, assuming that maribavir exposure is included in the model:1 [drawing 1]\n(§6) Pi is the probability of the event in the ith patient and α is the baseline Ln (odds) of the event. The model assumes a linear exposure effect on logit scale, with the parameter α representing the intercept, while β1 represents the slope linking the exposure parameter (X1) of maribavir (AUCss, Cmax.ss, and Ctrough.ss) to the response. The statistical significance of α and β1 was tested in the logistic regression models with a p value of < 0.05, and 95% CIs were provided for each parameter. The odds ratio (OR) for β1 was derived for a specific unit increment of the PK parameter. […]"}, "CMV [4]": {"tested_on": "CMV", "assay": "Exposure–response analysis of efficacy, primary endpoint: confirmed CMV viremia clearance at week 8 (SOLSTICE)", "format": "in vivo, human", "settings": "for Probability of being responder, primary endpoint: AUCss 200 µg∙h/mL", "description": "as §1, §2, §3, §4, §5, §6"}, "[5]": {"settings": "key secondary endpoint, reference <0.5%"}, "[6]": {"settings": "primary endpoint, reference < 0.5%"}}, "data": [{"smiles": "CC(C)Nc1nc2cc(Cl)c(Cl)cc2n1[C@H]1O[C@@H](CO)[C@H](O)[C@@H]1O", "note": "[maribavir]", "values": [{"measurement": "Increase in maribavir clearance", "setting": "[1]", "value": 2.5, "unit": "fold"}, {"measurement": "Reduction in maribavir AUC", "setting": "[1]", "value": 60, "unit": "%"}, {"measurement": "Reduction in maribavir half-life", "setting": "[1]", "value": 30, "unit": "%"}, {"measurement": "Dose-related myelosuppression", "setting": "[2]", "value": "no evidence of dose-related myelosuppression"}, {"measurement": "Incidence of dysgeusia across doses", "setting": "[2]; transplant recipients with refractory CMV infection", "value": "similar"}, {"measurement": "Proportion of responders, key secondary endpoint", "setting": "CMV [3]; 1st quartile of AUCss", "value": 31, "unit": "%"}, {"measurement": "Proportion of responders, key secondary endpoint", "setting": "CMV [3]; 2nd quartile of AUCss", "value": 25, "unit": "%"}, {"measurement": "Proportion of responders, key secondary endpoint", "setting": "CMV [3]; 3rd quartile of AUCss, n = 9", "value": 16, "unit": "%"}, {"measurement": "Proportion of responders, key secondary endpoint", "setting": "CMV [3]; 4th quartile of AUCss, n = 3", "value": 5, "unit": "%"}, {"measurement": "Probability of being a responder, key secondary endpoint", "setting": "CMV [3]; baseline CD8 + CD69 + cell count ≥ 2%, otherwise reference, AUCss 200 µg∙h/mL", "value": 77.9, "unit": "%"}, {"measurement": "Probability of being a responder, key secondary endpoint", "setting": "CMV [3]; developed TE CMV maribavir-resistant mutation, CD8 + CD69 + < 0.5%, low CMV DNA, no prior prophylaxis, AUCss 200 µg∙h/mL", "value": 2.5, "unit": "%"}, {"measurement": "Patients meeting key secondary endpoint (clearance and symptom control at week 8, maintained through week 16)", "setting": "CMV [3]; exposure–response population n = 231, 400 mg BID, 44 patients", "value": 19, "unit": "%"}, {"measurement": "Probability of being a responder, key secondary endpoint", "setting": "CMV [3]; intermediate/high CMV DNA levels, otherwise reference, AUCss 200 µg∙h/mL", "value": 19.7, "unit": "%"}, {"measurement": "Logistic regression Estimate (SE): Intercept", "setting": "CMV [3]; key secondary endpoint", "value": "0.814 (0.543)"}, {"measurement": "OR (95% CI): prior use of CMV prophylaxis", "setting": "CMV [3]; key secondary endpoint", "value": "0.441 (0.191, 0.969)"}, {"measurement": "OR (95% CI): treatment-emergent CMV mutation conferring resistance to maribavir", "setting": "CMV [3]; key secondary endpoint", "value": "0.0381 (2.97×10^–4, 0.284)"}, {"measurement": "OR (95% CI): AUCss of maribavir", "setting": "CMV [3]; key secondary endpoint, increment of 50 µg·h/mL", "value": "0.740 (0.611, 0.870)"}, {"measurement": "Logistic regression Estimate (SE): baseline CD8+CD69+ cell count ≥2%", "setting": "CMV [3]; [5]", "value": "1.65 (0.552)"}, {"measurement": "OR (95% CI): baseline CD8+CD69+ cell count not reported", "setting": "CMV [3]; [5]", "value": "0.899 (0.326, 2.34)"}, {"measurement": "OR (95% CI): baseline CD8+CD69+ cell count ≥0.5% to <2%", "setting": "CMV [3]; [5]", "value": "0.594 (0.159, 1.88)"}, {"measurement": "OR (95% CI): baseline CD8+CD69+ cell count ≥2%", "setting": "CMV [3]; [5]", "value": "5.18 (1.82, 15.9)"}, {"measurement": "OR (95% CI): baseline CMV DNA level intermediate/high", "setting": "CMV [3]; key secondary endpoint, reference low", "value": "0.363 (0.129, 0.910)"}, {"measurement": "Relationship between maribavir exposure (AUCss) and probability of response for the key secondary endpoint", "setting": "CMV [3]; p = 0.001", "value": "negative relationship"}, {"measurement": "Probability of being a responder, key secondary endpoint", "setting": "CMV [3]; prior use of CMV prophylaxis, otherwise reference, AUCss 200 µg·h/mL", "value": 23.0, "unit": "%"}, {"measurement": "Probability of being a responder, key secondary endpoint", "setting": "CMV [3]; reference: no TE mutation, CD8 + CD69 + < 0.5%, low CMV DNA, no prior prophylaxis, AUCss 200 µg∙h/mL", "value": 40.3, "unit": "%"}, {"measurement": "Observed proportion of responders, primary endpoint", "setting": "CMV [4]; 1st quartile of AUCss (range 72.2–170)", "value": 59, "unit": "%"}, {"measurement": "Observed proportion of responders, primary endpoint", "setting": "CMV [4]; 2nd quartile of AUCss (range 170–238)", "value": 72, "unit": "%"}, {"measurement": "Observed proportion of responders, primary endpoint", "setting": "CMV [4]; 3rd quartile of AUCss (range 238–354)", "value": 59, "unit": "%"}, {"measurement": "Observed proportion of responders, primary endpoint", "setting": "CMV [4]; 4th quartile of AUCss (range 354–802)", "value": 38, "unit": "%"}, {"measurement": "Probability of being responder, primary endpoint", "setting": "CMV [4]; CD8 + CD69 + cell count ≥ 2%, no TE mutation", "value": 90.0, "unit": "%"}, {"measurement": "Probability of being responder, primary endpoint", "setting": "CMV [4]; developed TE CMV maribavir-resistant mutation, CD8 + CD69 + < 0.5%", "value": 1.3, "unit": "%"}, {"measurement": "Relationship between maribavir exposure and probability of CMV viremia clearance at week 8", "setting": "CMV [4]; excluding 60 patients with TE CMV mutation conferring resistance, n = 171, p = 0.0709", "value": "no statistical exposure–efficacy relationship"}, {"measurement": "Patients meeting primary endpoint of confirmed CMV viremia clearance at week 8", "setting": "CMV [4]; exposure–response population n = 231, 400 mg BID, 131 patients", "value": 57, "unit": "%"}, {"measurement": "Relationship between maribavir exposure (AUCss) and probability of CMV viremia clearance at week 8", "setting": "CMV [4]; n = 231, p = 0.008", "value": "negative relationship"}, {"measurement": "Probability of being responder, primary endpoint", "setting": "CMV [4]; no TE CMV maribavir-resistant mutation, CD8 + CD69 + < 0.5%", "value": 74.2, "unit": "%"}, {"measurement": "OR (95% CI): treatment-emergent maribavir resistance on maribavir treatment", "setting": "CMV [4]; primary endpoint", "value": "0.00457 (3.59 × 10^–5, 0.0333)"}, {"measurement": "Non-responders among patients with TE maribavir-resistant CMV mutations", "setting": "CMV [4]; primary endpoint, week 8", "value": 81, "unit": "%"}, {"measurement": "Logistic regression Estimate (SE): baseline CD8+CD69+ cell count ≥2%", "setting": "CMV [4]; [6]", "value": "1.19 (0.630)"}, {"measurement": "OR (95% CI): baseline CD8+CD69+ cell count not reported", "setting": "CMV [4]; [6]", "value": "0.730 (0.328, 1.66)"}, {"measurement": "OR (95% CI): baseline CD8+CD69+ cell count ≥0.5% to <2%", "setting": "CMV [4]; [6]", "value": "0.739 (0.289, 1.98)"}, {"measurement": "OR (95% CI): baseline CD8+CD69+ cell count ≥2%", "setting": "CMV [4]; [6]", "value": "3.29 (1.07, 13.4)"}]}]}
